Tests used:
[1] = Antiproliferative activity against VEGF-stimulated HUVEC cells assessed as reduction in cell viability at 2 nM preincubated for 1 hr followed by addition of VEGF measured after 72 hrs by MTT assay; type: functional; settings: Homo sapiens
[2] = Antiproliferative activity against VEGF-stimulated HUVEC cells assessed as reduction in cell viability at 0.5 nM preincubated for 1 hr followed by addition of VEGF measured after 72 hrs by MTT assay; type: functional; settings: Homo sapiens

O=C(NCC(O)c1ccccc1)c1ccccc1Nc1ccc2c(/C=C/c3ccccn3)n[nH]c2c1 (centres undefined)
inhibition at 0.002 µM [1]: 55% | inhibition at 0.0005 µM [2]: 12%

CC(CNC(=O)c1ccccc1Nc1ccc2c(/C=C/c3ccccn3)n[nH]c2c1)c1ccccc1 (centres undefined)
inhibition at 0.002 µM [1]: 83% | inhibition at 0.0005 µM [2]: 26%

COc1cccc(CNC(=O)c2ccccc2Nc2ccc3c(/C=C/c4ccccn4)n[nH]c3c2)c1
inhibition at 0.002 µM [1]: 100% | inhibition at 0.0005 µM [2]: 58%

COC[C@@H]1CCCN1NC(=O)c1ccccc1Nc1ccc2c(/C=C/c3ccccn3)n[nH]c2c1
inhibition at 0.002 µM [1]: 7% | inhibition at 0.0005 µM [2]: 13%

CCCCCCCCNC(=O)c1ccccc1Nc1ccc2c(/C=C/c3ccccn3)n[nH]c2c1
inhibition at 0.002 µM [1]: 16% | inhibition at 0.0005 µM [2]: 26%

CNNC(=O)c1ccccc1Nc1ccc2c(/C=C/c3ccccn3)n[nH]c2c1
inhibition at 0.002 µM [1]: 31% | inhibition at 0.0005 µM [2]: 13%

CCCCC(=O)NNC(=O)c1ccccc1Nc1ccc2c(/C=C/c3ccccn3)n[nH]c2c1
inhibition at 0.002 µM [1]: 94% | inhibition at 0.0005 µM [2]: 40%

CC(=O)NCCNC(=O)c1ccccc1Nc1ccc2c(/C=C/c3ccccn3)n[nH]c2c1
inhibition at 0.002 µM [1]: 27% | inhibition at 0.0005 µM [2]: 15%

CCC(CC)NC(=O)c1ccccc1Nc1ccc2c(/C=C/c3ccccn3)n[nH]c2c1
inhibition at 0.002 µM [1]: 14% | inhibition at 0.0005 µM [2]: 25%

O=C(NC1CCCCCCC1)c1ccccc1Nc1ccc2c(/C=C/c3ccccn3)n[nH]c2c1
inhibition at 0.002 µM [1]: 60% | inhibition at 0.0005 µM [2]: 14%

Cc1cc(NC(=O)c2ccccc2Nc2ccc3c(/C=C/c4ccccn4)n[nH]c3c2)on1
inhibition at 0.002 µM [1]: 31% | inhibition at 0.0005 µM [2]: 26%

NC(=O)[C@H](CO)NC(=O)c1ccccc1Nc1ccc2c(/C=C/c3ccccn3)n[nH]c2c1
inhibition at 0.002 µM [1]: 4% | inhibition at 0.0005 µM [2]: 17%

O=C(NC1CCC1)c1ccccc1Nc1ccc2c(/C=C/c3ccccn3)n[nH]c2c1
inhibition at 0.002 µM [1]: 80% | inhibition at 0.0005 µM [2]: 42%

O=C(NCC1(O)CCCCC1)c1ccccc1Nc1ccc2c(/C=C/c3ccccn3)n[nH]c2c1
inhibition at 0.002 µM [1]: -19% | inhibition at 0.0005 µM [2]: 26%

O=C(NN1CCCCC1)c1ccccc1Nc1ccc2c(/C=C/c3ccccn3)n[nH]c2c1
inhibition at 0.002 µM [1]: 17% | inhibition at 0.0005 µM [2]: 27%

CCOCCNC(=O)c1ccccc1Nc1ccc2c(/C=C/c3ccccn3)n[nH]c2c1
inhibition at 0.002 µM [1]: 75% | inhibition at 0.0005 µM [2]: 53%

O=C(NCC1CCCO1)c1ccccc1Nc1ccc2c(/C=C/c3ccccn3)n[nH]c2c1 (centres undefined)
inhibition at 0.002 µM [1]: 44% | inhibition at 0.0005 µM [2]: 23%

Cc1ccccc1CNC(=O)c1ccccc1Nc1ccc2c(/C=C/c3ccccn3)n[nH]c2c1
inhibition at 0.002 µM [1]: 99% | inhibition at 0.0005 µM [2]: 24%

CN1CCN(NC(=O)c2ccccc2Nc2ccc3c(/C=C/c4ccccn4)n[nH]c3c2)CC1
inhibition at 0.002 µM [1]: -1% | inhibition at 0.0005 µM [2]: 19 to 38%

COC(CNC(=O)c1ccccc1Nc1ccc2c(/C=C/c3ccccn3)n[nH]c2c1)OC
inhibition at 0.002 µM [1]: 89% | inhibition at 0.0005 µM [2]: 47%

O=C(O)CCCNC(=O)c1ccccc1Nc1ccc2c(/C=C/c3ccccn3)n[nH]c2c1
inhibition at 0.002 µM [1]: 20% | inhibition at 0.0005 µM [2]: 16%

O=C(NC1CCCCC1)c1ccccc1Nc1ccc2c(/C=C/c3ccccn3)n[nH]c2c1
inhibition at 0.002 µM [1]: 76% | inhibition at 0.0005 µM [2]: 12%

O=C(NCC(O)CO)c1ccccc1Nc1ccc2c(/C=C/c3ccccn3)n[nH]c2c1 (centres undefined)
inhibition at 0.002 µM [1]: 20% | inhibition at 0.0005 µM [2]: 22%

O=C(NCCc1ccncc1)c1ccccc1Nc1ccc2c(/C=C/c3ccccn3)n[nH]c2c1
inhibition at 0.002 µM [1]: 22% | inhibition at 0.0005 µM [2]: 18%

O=C(Cc1ccccc1)NNC(=O)c1ccccc1Nc1ccc2c(/C=C/c3ccccn3)n[nH]c2c1
inhibition at 0.002 µM [1]: 66% | inhibition at 0.0005 µM [2]: 31%

CCCC(CO)NC(=O)c1ccccc1Nc1ccc2c(/C=C/c3ccccn3)n[nH]c2c1 (centres undefined)
inhibition at 0.002 µM [1]: 40% | inhibition at 0.0005 µM [2]: 44%

CC(C)CCC(C)NC(=O)c1ccccc1Nc1ccc2c(/C=C/c3ccccn3)n[nH]c2c1 (centres undefined)
inhibition at 0.002 µM [1]: 44% | inhibition at 0.0005 µM [2]: 6%

O=C(NCCN1CCCCC1)c1ccccc1Nc1ccc2c(/C=C/c3ccccn3)n[nH]c2c1
inhibition at 0.002 µM [1]: 19% | inhibition at 0.0005 µM [2]: 5%

CCCNC(=O)c1ccccc1Nc1ccc2c(/C=C/c3ccccn3)n[nH]c2c1
inhibition at 0.002 µM [1]: 64% | inhibition at 0.0005 µM [2]: 33%

NC(=O)CCNC(=O)c1ccccc1Nc1ccc2c(/C=C/c3ccccn3)n[nH]c2c1
inhibition at 0.002 µM [1]: 18% | inhibition at 0.0005 µM [2]: 8%

CC(CNC(=O)c1ccccc1Nc1ccc2c(/C=C/c3ccccn3)n[nH]c2c1)N(C)C (centres undefined)
inhibition at 0.002 µM [1]: 1% | inhibition at 0.0005 µM [2]: -9%

O=C(NCCCN(CCO)CCO)c1ccccc1Nc1ccc2c(/C=C/c3ccccn3)n[nH]c2c1
inhibition at 0.002 µM [1]: 4% | inhibition at 0.0005 µM [2]: 4%

O=C(NCCC1OCCO1)c1ccccc1Nc1ccc2c(/C=C/c3ccccn3)n[nH]c2c1
inhibition at 0.002 µM [1]: 68% | inhibition at 0.0005 µM [2]: 38%

CN(NC(=O)c1ccccc1Nc1ccc2c(/C=C/c3ccccn3)n[nH]c2c1)C(N)=S
inhibition at 0.002 µM [1]: 29% | inhibition at 0.0005 µM [2]: 12%

CCOC(CCNC(=O)c1ccccc1Nc1ccc2c(/C=C/c3ccccn3)n[nH]c2c1)OCC
inhibition at 0.002 µM [1]: 70% | inhibition at 0.0005 µM [2]: 30%

CCOC(CNC(=O)c1ccccc1Nc1ccc2c(/C=C/c3ccccn3)n[nH]c2c1)OCC
inhibition at 0.002 µM [1]: 47% | inhibition at 0.0005 µM [2]: 11%

O=C(NC(CO)CO)c1ccccc1Nc1ccc2c(/C=C/c3ccccn3)n[nH]c2c1
inhibition at 0.002 µM [1]: 8% | inhibition at 0.0005 µM [2]: 48%

O=C(NCCS(=O)(=O)O)c1ccccc1Nc1ccc2c(/C=C/c3ccccn3)n[nH]c2c1
inhibition at 0.002 µM [1]: 21% | inhibition at 0.0005 µM [2]: 16%

Cc1cc(C(=O)NNC(=O)c2ccccc2Nc2ccc3c(/C=C/c4ccccn4)n[nH]c3c2)[nH]n1
inhibition at 0.002 µM [1]: 39% | inhibition at 0.0005 µM [2]: 26%

NS(=O)(=O)c1ccc(CNC(=O)c2ccccc2Nc2ccc3c(/C=C/c4ccccn4)n[nH]c3c2)cc1
inhibition at 0.002 µM [1]: 13% | inhibition at 0.0005 µM [2]: 1%

CCN1CC(NC(=O)c2ccccc2Nc2ccc3c(/C=C/c4ccccn4)n[nH]c3c2)CN1CC
inhibition at 0.002 µM [1]: -19% | inhibition at 0.0005 µM [2]: 2%

O=C(NCc1cccnc1)c1ccccc1Nc1ccc2c(/C=C/c3ccccn3)n[nH]c2c1
inhibition at 0.002 µM [1]: 78% | inhibition at 0.0005 µM [2]: 30%

O=C(NCC(c1ccccc1)c1ccccc1)c1ccccc1Nc1ccc2c(/C=C/c3ccccn3)n[nH]c2c1
inhibition at 0.002 µM [1]: 15% | inhibition at 0.0005 µM [2]: 11%

O=C(NCCNc1ccccc1)c1ccccc1Nc1ccc2c(/C=C/c3ccccn3)n[nH]c2c1
inhibition at 0.002 µM [1]: 89% | inhibition at 0.0005 µM [2]: 19%

CC1CCCCN1CCCNC(=O)c1ccccc1Nc1ccc2c(/C=C/c3ccccn3)n[nH]c2c1 (centres undefined)
inhibition at 0.002 µM [1]: 15% | inhibition at 0.0005 µM [2]: 25%

NC(=O)C[C@@H](NC(=O)c1ccccc1Nc1ccc2c(/C=C/c3ccccn3)n[nH]c2c1)C(N)=O
inhibition at 0.002 µM [1]: 15% | inhibition at 0.0005 µM [2]: 21%

NC(=O)[C@H]1CCCC[C@H]1NC(=O)c1ccccc1Nc1ccc2c(/C=C/c3ccccn3)n[nH]c2c1
inhibition at 0.002 µM [1]: 39% | inhibition at 0.0005 µM [2]: 21%

CN(C)CC(C)(C)CNC(=O)c1ccccc1Nc1ccc2c(/C=C/c3ccccn3)n[nH]c2c1
inhibition at 0.002 µM [1]: 5% | inhibition at 0.0005 µM [2]: 38%

CC(C)C(C)NC(=O)c1ccccc1Nc1ccc2c(/C=C/c3ccccn3)n[nH]c2c1 (centres undefined)
inhibition at 0.002 µM [1]: 55% | inhibition at 0.0005 µM [2]: 19%

CC(C)NC(=O)c1ccccc1Nc1ccc2c(/C=C/c3ccccn3)n[nH]c2c1
inhibition at 0.002 µM [1]: 43% | inhibition at 0.0005 µM [2]: 22%

CCCC(CCC)NC(=O)c1ccccc1Nc1ccc2c(/C=C/c3ccccn3)n[nH]c2c1
inhibition at 0.002 µM [1]: 52% | inhibition at 0.0005 µM [2]: 1%

CCN1CCC[C@@H]1CNC(=O)c1ccccc1Nc1ccc2c(/C=C/c3ccccn3)n[nH]c2c1
inhibition at 0.002 µM [1]: 37% | inhibition at 0.0005 µM [2]: 8%

CCC(O)CNC(=O)c1ccccc1Nc1ccc2c(/C=C/c3ccccn3)n[nH]c2c1 (centres undefined)
inhibition at 0.002 µM [1]: 23% | inhibition at 0.0005 µM [2]: 13%

CCN(CC)CCCC(C)NC(=O)c1ccccc1Nc1ccc2c(/C=C/c3ccccn3)n[nH]c2c1 (centres undefined)
inhibition at 0.002 µM [1]: 15% | inhibition at 0.0005 µM [2]: 3%

CCN(CC)CCCNC(=O)c1ccccc1Nc1ccc2c(/C=C/c3ccccn3)n[nH]c2c1
inhibition at 0.002 µM [1]: -1% | inhibition at 0.0005 µM [2]: 31%

CC(C)c1ccc(CNC(=O)c2ccccc2Nc2ccc3c(/C=C/c4ccccn4)n[nH]c3c2)cc1
inhibition at 0.002 µM [1]: 51% | inhibition at 0.0005 µM [2]: 23%

Cc1cnc(NC(=O)c2ccccc2Nc2ccc3c(/C=C/c4ccccn4)n[nH]c3c2)s1
inhibition at 0.002 µM [1]: 92% | inhibition at 0.0005 µM [2]: 20%

From ChEMBL document CHEMBL3880421, “Indazole compounds and pharmaceutical compositions for inhibiting protein kinases, and methods for their use” (2003)
